This passage reports IC50 results from patent US20080261994A1, “CYCLOPROPANE COMPOUNDS AND PHARMACEUTICAL USE THEREOF” (Japan Tobacco Inc., priority 2003, published 2008).

As a reminder, the IC50 is the concentration needed to halve the response being measured.

Assay type in all cases: biochemical
The target of one assay is T1, aggrecanase-1 (Homo sapiens, UniProt O75173).
T1 sequence (O75173 213-837): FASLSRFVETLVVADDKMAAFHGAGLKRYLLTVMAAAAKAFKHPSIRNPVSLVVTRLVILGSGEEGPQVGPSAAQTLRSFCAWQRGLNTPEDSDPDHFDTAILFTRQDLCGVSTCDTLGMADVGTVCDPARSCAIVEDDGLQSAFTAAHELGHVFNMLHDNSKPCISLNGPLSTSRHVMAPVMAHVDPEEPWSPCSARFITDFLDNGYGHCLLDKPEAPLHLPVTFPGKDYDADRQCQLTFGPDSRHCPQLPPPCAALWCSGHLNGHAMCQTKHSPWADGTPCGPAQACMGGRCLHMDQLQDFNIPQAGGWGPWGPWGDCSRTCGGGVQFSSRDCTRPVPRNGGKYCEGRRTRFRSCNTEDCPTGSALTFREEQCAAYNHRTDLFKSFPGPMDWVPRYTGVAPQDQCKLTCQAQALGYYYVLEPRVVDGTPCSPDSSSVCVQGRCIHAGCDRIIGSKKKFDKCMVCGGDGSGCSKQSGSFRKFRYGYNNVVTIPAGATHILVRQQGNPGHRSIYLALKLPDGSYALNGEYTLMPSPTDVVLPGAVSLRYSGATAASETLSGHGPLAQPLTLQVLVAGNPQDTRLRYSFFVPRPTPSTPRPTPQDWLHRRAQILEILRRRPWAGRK
As to the kind of experiment: Aggrecanase-1 inhibitory action (Particle Assay, GAG release from aggrecan-containing polyacrylamide particles). The settings on record: Experimental Example 1; read-out: IC50 AG1. In a few lines:
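Enzyme and compound incubated with aggrecan-containing polyacrylamide particles in Tris-HCl buffer at 37° C for 15 h. Released GAG in supernatant measured with 1,9-dimethylmethylene blue at 595 nm against chondroitin sulfate standard; % inhibition from enzyme-free and inhibitor-free wells, reported as TC50 (μM).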

The target in a further assay is T2, Recombinant Human MMP-13 (Homo sapiens, UniProt P45452).
T2 construct: purchased R&D systems 511-MM
As to the kind of experiment: MMP-13 inhibitory activity (MMP-13 specific fluorescent substrate with quencher). The settings on record: Experimental Example 3; read-out: IC50 MMP13. Put shortly:
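Recombinant human MMP-13 with test compound, reaction started with quenched fluorogenic peptide 7-MCA-Pro-CHA-Gly-NVal-His-Ala-DPA in Tris-HCl buffer, 1 h at 25 °C, stopped with acetic acid. Fluorescence at Ex 325/Em 405 nm; % inhibition versus enzyme-free and inhibitor-free wells, reported as IC50 (μM).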

A further assay has as its target T3, MMP-1 (Homo sapiens, UniProt P03956).
T3 sequence (P03956 100-469): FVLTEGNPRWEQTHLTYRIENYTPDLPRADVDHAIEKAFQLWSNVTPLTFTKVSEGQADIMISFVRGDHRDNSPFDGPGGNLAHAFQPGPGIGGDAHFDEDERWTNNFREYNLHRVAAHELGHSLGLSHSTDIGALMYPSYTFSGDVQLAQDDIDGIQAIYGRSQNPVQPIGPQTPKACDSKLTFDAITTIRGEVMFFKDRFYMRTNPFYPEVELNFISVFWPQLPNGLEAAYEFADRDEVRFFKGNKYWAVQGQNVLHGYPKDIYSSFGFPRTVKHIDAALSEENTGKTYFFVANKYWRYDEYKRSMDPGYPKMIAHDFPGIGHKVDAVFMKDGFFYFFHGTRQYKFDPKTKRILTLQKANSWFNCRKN
In words: MMP-1 inhibitory action (Type I collagen Activity Measurement kit, FITC-labeled collagen type I). Particulars: Experimental Example 2; read-out: IC50 MMP1.

Regarding `Cc1cnc(N2CCN(S(=O)(=O)N[C@@]3(C(=O)O)C(C)[C@@H]3c3ccccc3)CC2)s1` (stereo partly drawn) [Example 2-484], the results for the IC50 at aggrecanase-1, at Recombinant Human MMP-13 and on MMP-1 were ≥ 1000 nM, < 1000 nM and ≥ 10000 nM, respectively.

Take `C[C@]1(c2ccccc2)C[C@@]1(NS(=O)(=O)c1ccc(-c2ccc3c(c2)OCCO3)s1)C(=O)O` [Example 2-485]: the values for the IC50 at aggrecanase-1, on Recombinant Human MMP-13 and on MMP-1 were < 1000 nM, ≥ 1000 nM and ≥ 10000 nM, respectively.

As for `O=C(NO)C1(NS(=O)(=O)c2ccc(-c3cc(C(F)(F)F)on3)s2)C2CCc3ccccc3C21` (stereo not drawn) [Example 2-486], the results for the IC50 on aggrecanase-1, on Recombinant Human MMP-13 and on MMP-1 were < 1000 nM, < 100 nM and < 1000 nM, respectively.

With `C[C@]1(c2ccccc2)C[C@@]1(NS(=O)(=O)c1ccc(-c2ccc3nnn(O)c3c2)s1)C(=O)O` [Example 2-487], the values for the IC50 on aggrecanase-1, at Recombinant Human MMP-13 and at MMP-1 were ≥ 1000 nM, ≥ 1000 nM and ≥ 10000 nM, respectively.

`CN(C)c1cc(-c2ccc(S(=O)(=O)N[C@@]3(C(=O)O)C[C@]3(C)c3ccccc3)s2)ccc1Cl` [Example 2-488]: the results for the IC50 on aggrecanase-1, at Recombinant Human MMP-13 and at MMP-1 were ≥ 1000 nM, ≥ 1000 nM and ≥ 10000 nM, respectively.

Consider `O=C(O)C1(NS(=O)(=O)c2cn3cc(-c4ccccc4)nc3s2)CC1c1ccccc1` (stereo not drawn) [Example 2-489], for which the IC50 at aggrecanase-1 is ≥ 1000 nM; at Recombinant Human MMP-13, < 100 nM; at MMP-1 it was ≥ 10000 nM.

For `O=C(O)C1(NS(=O)(=O)c2cn3cc(-c4ccc(Cl)cc4)nc3s2)CC1c1ccccc1` (stereo not drawn) [Example 2-490], the IC50 at aggrecanase-1 is ≥ 1000 nM; at Recombinant Human MMP-13 it was < 100 nM; on MMP-1 it was ≥ 10000 nM.

Take `O=C(O)C1(NS(=O)(=O)c2cn3cc(-c4ccc(F)cc4)nc3s2)CC1c1ccccc1` (stereo not drawn) [Example 2-491]: the IC50 on aggrecanase-1 was ≥ 1000 nM; at Recombinant Human MMP-13, < 100 nM; on MMP-1 it was ≥ 10000 nM.

For the compound `COc1cnn(-c2ccc(S(=O)(=O)N[C@@]3(C(=O)O)C(C)[C@@H]3c3ccccc3)s2)c1` (stereo partly drawn) [Example 2-492], the IC50 on aggrecanase-1, at Recombinant Human MMP-13 and on MMP-1 was < 100 nM throughout.

On to `CC1[C@H](c2ccccc2)[C@]1(NS(=O)(=O)c1ccc(-c2cc3ccccc3[nH]2)s1)C(=O)O` (stereo partly drawn) [Example 2-493], for which the values for the IC50 on aggrecanase-1, at Recombinant Human MMP-13 and at MMP-1 were < 100 nM, < 100 nM and < 1000 nM, respectively.

As to `CC1[C@H](c2ccccc2)[C@]1(NS(=O)(=O)c1ccc(-n2cc(Br)cn2)s1)C(=O)O` (stereo partly drawn) [Example 2-494], the IC50 at aggrecanase-1, on Recombinant Human MMP-13 and at MMP-1 was < 100 nM each time.

With `O=C(NO)C1(NS(=O)(=O)c2ccc(-c3cc(C(F)(F)F)on3)s2)C2Cc3ccccc3C21` (stereo not drawn) [Example 2-495], the IC50 on aggrecanase-1, at Recombinant Human MMP-13 and on MMP-1 was < 100 nM in each case.

With `CC1[C@H](c2ccccc2)[C@]1(NS(=O)(=O)c1ccc(-c2ccc(Cl)c(N)c2)s1)C(=O)O` (stereo partly drawn) [Example 2-496], the results for the IC50 on aggrecanase-1, at Recombinant Human MMP-13 and at MMP-1 were < 100 nM, < 100 nM and < 1000 nM, respectively.

As to `CC1[C@H](c2ccccc2)[C@]1(NS(=O)(=O)c1ccc(-c2ccc3nsnc3c2)s1)C(=O)O` (stereo partly drawn) [Example 2-497], the values for the IC50 on aggrecanase-1, on Recombinant Human MMP-13 and on MMP-1 were < 100 nM, < 100 nM and ≥ 1000 nM, respectively.

Regarding `C[C@]1(c2ccccc2)C[C@@]1(NS(=O)(=O)c1ccc(-n2cc(Cl)cn2)s1)C(=O)O` [Example 2-498], the IC50 at aggrecanase-1 was < 100 nM; on Recombinant Human MMP-13, < 1000 nM; at MMP-1, ≥ 1000 nM.

Turning to `CC1[C@H](c2ccccc2)[C@]1(NS(=O)(=O)c1cn2cc(-c3ccccc3)nc2s1)C(=O)O` (stereo partly drawn) [Example 2-499], the IC50 at aggrecanase-1 is < 1000 nM; on Recombinant Human MMP-13, < 100 nM; at MMP-1, < 1000 nM.

With `CC1[C@H](c2ccccc2)[C@]1(NS(=O)(=O)N1CCC(Oc2ccc(Cl)cc2)C1)C(=O)O` (stereo partly drawn) [Example 2-500], the IC50 at aggrecanase-1 was ≥ 1000 nM; on Recombinant Human MMP-13 it was < 1000 nM; at MMP-1 it was ≥ 1000 nM.

Turning to `CC1[C@H](c2ccccc2)[C@]1(NS(=O)(=O)N1CCC(Oc2cccc(Cl)c2)C1)C(=O)O` (stereo partly drawn) [Example 2-501], the IC50 at aggrecanase-1, at Recombinant Human MMP-13 and at MMP-1 was ≥ 1000 nM each time.

For `CC1[C@H](c2ccccc2)[C@]1(NS(=O)(=O)N1CCN(c2ccc(Cl)cc2)C(=O)C1)C(=O)O` (stereo partly drawn) [Example 2-502], the IC50 on aggrecanase-1, on Recombinant Human MMP-13 and at MMP-1 was ≥ 1000 nM each time.

On to `CC1[C@H](c2ccccc2)[C@]1(NS(=O)(=O)N1CCN(c2ccc(Cl)nn2)CC1)C(=O)O` (stereo partly drawn) [Example 2-503], for which the IC50 at aggrecanase-1 is < 1000 nM; at Recombinant Human MMP-13 it was < 1000 nM; on MMP-1, ≥ 1000 nM.

For the compound `CC1[C@H](c2ccccc2)[C@]1(NS(=O)(=O)N1CCN(c2ccc(C(F)(F)F)cc2)C(=O)C1)C(=O)O` (stereo partly drawn) [Example 2-504], the IC50 on aggrecanase-1 is ≥ 1000 nM; at Recombinant Human MMP-13, < 1000 nM; at MMP-1 it was ≥ 1000 nM.

With `CC1[C@H](c2ccccc2)[C@]1(NS(=O)(=O)N1Cc2ccc(Br)cc2C1)C(=O)O` (stereo partly drawn) [Example 2-505], the IC50 at aggrecanase-1 was ≥ 1000 nM; at Recombinant Human MMP-13 it was < 1000 nM; at MMP-1, ≥ 1000 nM.

Regarding `C[C@]1(c2ccccc2)C[C@@]1(NS(=O)(=O)c1ccc(-n2cc(C(F)(F)F)cn2)cc1)C(=O)O` [Example 2-506], the IC50 on aggrecanase-1 was ≥ 1000 nM; at Recombinant Human MMP-13, < 100 nM; at MMP-1, < 1000 nM.

Turning to `CC1[C@H](c2ccccc2)[C@]1(NS(=O)(=O)c1ccc(-n2cc(C(F)(F)F)cn2)cc1)C(=O)O` (stereo partly drawn) [Example 2-507], the IC50 is ≥ 1000 nM on aggrecanase-1, < 100 nM at Recombinant Human MMP-13 and < 1000 nM at MMP-1.

For the compound `CC1C(c2ccccc2)C1(NS(=O)(=O)c1ccc(Cc2ccccc2)s1)C(=O)O` (stereo not drawn) [Example 2-508], the IC50 on aggrecanase-1, on Recombinant Human MMP-13 and at MMP-1 was ≥ 1000 nM each time.

For `CC1C(c2ccccc2)C1(NS(=O)(=O)c1ccc(-c2cccc(O)c2)s1)C(=O)O` (stereo not drawn) [Example 2-509], the IC50 on aggrecanase-1 is < 1000 nM; at Recombinant Human MMP-13 it was < 100 nM; at MMP-1, ≥ 1000 nM.

As for `CC(C)OC(=O)N1CCN(S(=O)(=O)N[C@@]2(C(=O)O)C[C@@H]2c2ccccc2)CC1` [Example 2-510], the IC50 at aggrecanase-1, at Recombinant Human MMP-13 and at MMP-1 was ≥ 1000 nM throughout.

With `CC(C)CCN1CCN(S(=O)(=O)N[C@@]2(C(=O)O)C[C@@H]2c2ccccc2)CC1` [Example 2-511], the IC50 on aggrecanase-1, at Recombinant Human MMP-13 and on MMP-1 was ≥ 1000 nM each time.

Take `CCNC(=O)N1CCN(S(=O)(=O)N[C@@]2(C(=O)O)C[C@@H]2c2ccccc2)CC1` [Example 2-512]: the IC50 at aggrecanase-1, at Recombinant Human MMP-13 and on MMP-1 was ≥ 1000 nM each time.

In the case of `CC(C)CC(=O)N1CCN(S(=O)(=O)N[C@@]2(C(=O)O)C[C@@H]2c2ccccc2)CC1` [Example 2-513], the IC50 on aggrecanase-1, at Recombinant Human MMP-13 and at MMP-1 was ≥ 1000 nM each time.

As to `CC1[C@H](c2ccccc2)[C@]1(NS(=O)(=O)c1ccc(-n2ccc(C(F)(F)F)n2)s1)C(=O)O` (stereo partly drawn) [Example 2-514], the IC50 is < 1000 nM on aggrecanase-1, < 1000 nM at Recombinant Human MMP-13 and ≥ 1000 nM on MMP-1.

As to `CN(c1ccccc1)c1ccc(S(=O)(=O)N[C@@]2(C(=O)O)C[C@]2(C)c2ccccc2)s1` [Example 2-515], the IC50 on aggrecanase-1, on Recombinant Human MMP-13 and at MMP-1 was ≥ 1000 nM each time.

`COc1cc(-c2ccc(S(=O)(=O)N[C@@]3(C(=O)O)C[C@]3(C)c3ccccc3)s2)ccc1Cl` [Example 2-516]: the values for the IC50 at aggrecanase-1, at Recombinant Human MMP-13 and at MMP-1 were < 1000 nM, < 1000 nM and ≥ 1000 nM, respectively.

On to `CC1[C@H](c2ccccc2)[C@]1(NS(=O)(=O)c1ccc(-c2ccc3nonc3c2)s1)C(=O)O` (stereo partly drawn) [Example 2-517], for which the results for the IC50 at aggrecanase-1, at Recombinant Human MMP-13 and on MMP-1 were < 100 nM, < 1000 nM and ≥ 1000 nM, respectively.
